Measured values from patent US8933094B2, “Ethynyl compounds useful for treatment of CNS disorder” (Hoffmann-La Roche Inc., priority 2009, dated 2015).

Target: T1, human mGlu5a receptor (Homo sapiens, UniProt P41594)
T1 construct: expressed in transfected cells
Assay: Intracellular Ca2+ mobilization assay (mGlu5 PAM)
Type: cell-based
Conditions: for EC50: HEK-293 cells stably transfected with human mGlu5a, L-glutamate added at EC20 after 10-30 min pre-incubation with test compound, read-out: EC50 (nM) mGlu5PAM; for Emax: maximal response in % of the maximal stimulatory effect obtained with saturating concentrations of L-glutamate, read-out: Eff. (%)
Description: A monoclonal HEK-293 cell line stably transfected with a cDNA encoding for the human mGlu5a receptor was generated; for the work with mGlu5 Positive Allosteric Modulators (PAMs), a cell line with low receptor expression levels and low constitutive receptor activity was selected to allow the differentiation of agonistic versus PAM activity. Cells were cultured according to standard protocols (Freshney, 2000) in Dulbecco's Modified Eagle Medium with high glucose supplemented with 1 mM glutamine, 10% (vol/vol) heat-inactivated bovine calf serum, Penicillin/Streptomycin, 50 μg/ml hygromycin and 15 μg/ml blasticidin (all cell culture reagents and antibiotics from Invitrogen, Basel, Switzerland).
About 24 hrs before an experiment, 5×10^4 cells/well were seeded in poly-D-lysine coated, black/clear-bottomed 96-well plates. The cells were loaded with 2.5 μM Fluo-4AM in loading buffer (1×HBSS, 20 mM HEPES) for 1 hr at 37° C. and washed five times with loading buffer. The cells were transferred into a Functional Drug Screening System 7000 (Hamamatsu, Paris, France), and 11 half logarithmic serial dilutions of test compound at 37° C. were added and the cells were incubated for 10-30 min. with on-line recording of fluorescence. Following this pre-incubation step, the agonist L-glutamate was added to the cells at a concentration corresponding to EC20 (typically around 80 μM) with on-line recording of fluorescence; in order to account for day-to-day variations in the responsiveness of cells, the EC20 of glutamate was determined immediately ahead of each experiment by recording of a full dose-response curve of glutamate.
Responses were measured as peak increase in fluorescence minus basal (i.e. fluorescence without addition of L-glutamate), normalized to the maximal stimulatory effect obtained with saturating concentrations of L-glutamate. Graphs were plotted with the % maximal stimulatory using XLfit, a curve fitting program that iteratively plots the data using Levenburg Marquardt algorithm. The single site competition analysis equation used was y=A+((B−A)/(1+((x/C)D))), where y is the % maximal stimulatory effect, A is the minimum y, B is the maximum y, C is the EC50, x is the log 10 of the concentration of the competing compound and D is the slope of the curve (the Hill Coefficient). From these curves the EC50 (concentration at which half maximal stimulation was achieved), the Hill coefficient as well as the maximal response in % of the maximal stimulatory effect obtained with saturating concentrations of L-glutamate were calculated.
A depression of the signal observed after addition of the EC20 concentration of L-glutamate was indicative of an inhibitory activity of the test compound.

T1 sequence (P41594 21-1180 isoform P41594-2 limits assumed): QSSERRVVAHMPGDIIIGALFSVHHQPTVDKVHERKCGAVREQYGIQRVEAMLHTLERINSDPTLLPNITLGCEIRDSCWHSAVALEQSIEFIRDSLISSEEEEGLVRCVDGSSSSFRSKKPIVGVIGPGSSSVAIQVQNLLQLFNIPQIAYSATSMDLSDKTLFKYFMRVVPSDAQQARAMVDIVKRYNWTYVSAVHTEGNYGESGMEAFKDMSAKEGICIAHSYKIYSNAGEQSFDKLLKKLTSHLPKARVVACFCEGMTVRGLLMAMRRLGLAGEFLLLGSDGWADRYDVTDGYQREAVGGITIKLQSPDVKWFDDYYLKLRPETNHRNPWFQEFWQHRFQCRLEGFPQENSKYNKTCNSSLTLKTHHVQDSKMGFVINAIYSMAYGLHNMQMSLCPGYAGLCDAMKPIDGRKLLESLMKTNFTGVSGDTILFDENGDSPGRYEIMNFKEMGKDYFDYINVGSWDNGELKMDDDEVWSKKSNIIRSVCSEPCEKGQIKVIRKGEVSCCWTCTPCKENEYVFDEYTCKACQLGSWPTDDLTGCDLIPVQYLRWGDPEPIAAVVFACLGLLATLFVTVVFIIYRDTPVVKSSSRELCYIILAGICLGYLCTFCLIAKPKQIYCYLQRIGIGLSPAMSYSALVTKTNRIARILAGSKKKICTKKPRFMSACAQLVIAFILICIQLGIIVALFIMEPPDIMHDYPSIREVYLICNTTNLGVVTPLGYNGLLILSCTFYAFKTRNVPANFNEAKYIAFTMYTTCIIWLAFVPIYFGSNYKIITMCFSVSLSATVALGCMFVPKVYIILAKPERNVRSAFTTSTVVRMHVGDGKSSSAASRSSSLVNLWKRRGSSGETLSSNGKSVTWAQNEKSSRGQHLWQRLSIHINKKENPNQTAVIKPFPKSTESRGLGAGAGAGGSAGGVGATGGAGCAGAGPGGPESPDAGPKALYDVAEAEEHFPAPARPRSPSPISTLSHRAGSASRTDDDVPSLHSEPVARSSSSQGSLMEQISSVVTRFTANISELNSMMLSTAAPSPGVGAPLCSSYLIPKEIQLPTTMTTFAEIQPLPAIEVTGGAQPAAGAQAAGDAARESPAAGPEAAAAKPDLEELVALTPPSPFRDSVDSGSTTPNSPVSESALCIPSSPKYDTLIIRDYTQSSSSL

Row | EC50 [nM] | Emax [%] | SMILES
1 | 70 | 116 | C(#Cc1cnc2ccnn2c1)c1ccccc1 [Example 1, 6-Phenylethynyl-pyrazolo[1,5-a]pyrimidine]
2 | 49 | 99 | Cc1cc2ncc(C#Cc3ccccc3)cn2n1 [Example 2, 2-Methyl-6-phenylethynyl-pyrazolo[1,5-a]pyrimidine]
3 | 47 | 81 | Cc1cc2ncc(C#Cc3ccccc3F)cn2n1 [Example 3, 6-(2-Fluoro-phenylethynyl)-2-methyl-pyrazolo[1,5-a]pyrimidine]
4 | 42 | 77 | Cc1cc2ncc(C#Cc3cccc(F)c3)cn2n1 [Example 4, 6-(3-Fluoro-phenylethynyl)-2-methyl-pyrazolo[1,5-a]pyrimidine]
5 | 78 | 74 | Cc1cc2ncc(C#Cc3ccc(F)cc3)cn2n1 [Example 5, 6-(4-Fluoro-phenylethynyl)-2-methyl-pyrazolo[1,5-a]pyrimidine]
6 | 498 | 82 | Cc1cc2ncc(C#Cc3ccncc3)cn2n1 [Example 6, 2-Methyl-6-pyridin-4-ylethynyl-pyrazolo[1,5-a]pyrimidine]
7 | 132 | 73 | Cc1ccc(C#Cc2cnc3cc(C)nn3c2)cc1 [Example 7, 2-Methyl-6-p-tolylethynyl-pyrazolo[1,5-a]pyrimidine]
8 | 148 | 69 | Cc1cc2ncc(C#Cc3ccc(Cl)cc3)cn2n1 [Example 8, 6-(4-Chloro-phenylethynyl)-2-methyl-pyrazolo[1,5-a]pyrimidine]
9 | 5 | 75 | CC(C)(C)c1cc2ncc(C#Cc3ccccc3)cn2n1 [Example 9, 2-tert-Butyl-6-phenylethynyl-pyrazolo[1,5-a]pyrimidine]
10 | 19 | 80 | CC(C)(C)c1cc2ncc(C#Cc3ccccc3F)cn2n1 [Example 10, 2-tert-Butyl-6-(2-fluoro-phenylethynyl)-pyrazolo[1,5-a]pyrimidine]
11 | 5 | 86 | CC(C)(C)c1cc2ncc(C#Cc3cccc(F)c3)cn2n1 [Example 11, 2-tert-Butyl-6-(3-fluoro-phenylethynyl)-pyrazolo[1,5-a]pyrimidine]
12 | 7 | 75 | CC(C)(C)c1cc2ncc(C#Cc3ccc(F)cc3)cn2n1 [Example 12, 2-tert-Butyl-6-(4-fluoro-phenylethynyl)-pyrazolo[1,5-a]pyrimidine]
13 | 33 | 88 | CC(C)(C)c1cc2ncc(C#Cc3cccnc3)cn2n1 [Example 13, 2-tert-Butyl-6-pyridin-3-ylethynyl-pyrazolo[1,5-a]pyrimidine]
14 | 4 | 37 | CC(C)(C)c1cc2ncc(C#Cc3ccncc3)cn2n1 [Example 14, 2-tert-Butyl-6-pyridin-4-ylethynyl-pyrazolo[1,5-a]pyrimidine]
15 | 68 | 53 | COc1ccc(C#Cc2cnc3cc(C(C)(C)C)nn3c2)cc1 [Example 15, 2-tert-Butyl-6-(4-methoxy-phenylethynyl)-pyrazolo[1,5-a]pyrimidine]
16 | 100 | 50 | Cc1cccc(C#Cc2cnc3cc(C(C)(C)C)nn3c2)c1 [Example 16, 2-tert-Butyl-6-m-tolylethynyl-pyrazolo[1,5-a]pyrimidine]
17 | 104 | 41 | COc1cccc(C#Cc2cnc3cc(C(C)(C)C)nn3c2)c1 [Example 17, 2-tert-Butyl-6-(3-methoxy-phenylethynyl)-pyrazolo[1,5-a]pyrimidine]
18 | 182 | 102 | C(#Cc1cnc2cc(C3CCC3)nn2c1)c1ccccc1 [Example 18, 2-Cyclobutyl-6-phenylethynyl-pyrazolo[1,5-a]pyrimidine]
19 | 100 | 68 | Cc1ccc(C#Cc2cnc3cc(C(C)(C)C)nn3c2)cc1 [Example 19, 2-tert-Butyl-6-p-tolylethynyl-pyrazolo[1,5-a]pyrimidine]
20 | 400 | 89 | CC(C)(C)c1cc2ncc(C#Cc3ccc(Cl)cc3)cn2n1 [Example 20, 2-tert-Butyl-6-(4-chloro-phenylethynyl)-pyrazolo[1,5-a]pyrimidine]

Row | EC50 [nM] | Emax [%] | SMILES
21 | 183 | 77 | CC(C)(C)c1cc2ncc(C#Cc3ccc(Cl)nc3)cn2n1 [Example 21, 2-tert-Butyl-6-(6-chloro-pyridin-3-ylethynyl)-pyrazolo[1,5-a]pyrimidine]
22 | 255 | 98 | CC(C)(C)c1cc2ncc(C#Cc3ccc(N)nc3)cn2n1 [Example 22, 5-(2-tert-Butyl-pyrazolo[1,5-a]pyrimidin-6-ylethynyl)-pyridin-2-ylamine]
23 | 34 | 59 | CC(C)(C)c1cc2ncc(C#Cc3cncc(Cl)c3)cn2n1 [Example 23, 2-tert-Butyl-6-(5-chloro-pyridin-3-ylethynyl)-pyrazolo[1,5-a]pyrimidine]
24 | 181 | 68 | CC(C)(C)c1cc2ncc(C#Cc3cncnc3)cn2n1 [Example 24, 2-tert-Butyl-6-pyrimidin-5-ylethynyl-pyrazolo[1,5-a]pyrimidine]
25 | 45 | 93 | CC(C)(C)c1cc2ncc(C#Cc3ccc(F)c(F)c3)cn2n1 [Example 25, 2-tert-Butyl-6-(3,4-difluoro-phenylethynyl)-pyrazolo[1,5-a]pyrimidine]
26 | 472 | 124 | C(#Cc1cnc2cc(C3CCOCC3)nn2c1)c1ccccc1 [Example 26, 6-Phenylethynyl-2-(tetrahydro-pyran-4-yl)-pyrazolo[1,5-a]pyrimidine]
27 | 41 | 99 | CC(C)(C)c1cc2ncc(C#Cc3ccc(N)cc3)cn2n1 [Example 27, 4-(2-tert-Butyl-pyrazolo[1,5-a]pyrimidin-6-ylethynyl)-phenylamine]
28 | 152 | 59 | CC(C)(O)c1cc2ncc(C#Cc3ccccc3)cn2n1 [Example 28, 2-(6-Phenylethynyl-pyrazolo[1,5-a]pyrimidin-2-yl)-propan-2-ol]
29 | 161 | 61 | CC(C)(C)c1cc2ncc(C#Cc3cncc(F)c3)cn2n1 [Example 29, 2-tert-Butyl-6-(5-fluoro-pyridin-3-ylethynyl)-pyrazolo[1,5-a]pyrimidine]
30 | 310 | 63 | N#Cc1cnn2cc(C#Cc3ccccc3)cnc12 [Example 30, 6-Phenylethynyl-pyrazolo[1,5-a]pyrimidine-3-carbonitrile]
31 | 274 | 123 | C(#Cc1ccc2ncnn2c1)c1ccccc1 [Example 31, 6-Phenylethynyl-[1,2,4]triazolo[1,5-a]pyridine]
32 | 210 | 100 | C(#Cc1cnc2ncnn2c1)c1ccccc1 [Example 32, 6-Phenylethynyl-[1,2,4]triazolo[1,5-a]pyrimidine]
33 | 136 | 88 | C(#Cc1ccc2ccnn2c1)c1ccccc1 [Example 33, 6-Phenylethynyl-pyrazolo[1,5-a]pyridine]
34 | 50 | 77 | C(#Cc1ccc2cnnn2c1)c1ccccc1 [Example 34, 6-Phenylethynyl-[1,2,3]triazolo[1,5-a]pyridine]
35 | 37 | 69 | CC(C)(C)c1cc2ncc(C#Cc3cccc(N)c3)cn2n1 [Example 35, 3-(2-tert-Butyl-pyrazolo[1,5-a]pyrimidin-6-ylethynyl)-phenylamine]
36 | 155 | 88 | CC(C)(C)c1cc2ncc(C#Cc3ccccc3N)cn2n1 [Example 36, 2-(2-tert-Butyl-pyrazolo[1,5-a]pyrimidin-6-ylethynyl)-phenylamine]
37 | 39 | 65 | CC(C)(C)c1cc2ncc(C#Cc3cc(F)ccc3F)cn2n1 [Example 37, 2-tert-Butyl-6-(2,5-difluoro-phenylethynyl)-pyrazolo[1,5-a]pyrimidine]
38 | 18 | 53 | CC(C)c1cc2ncc(C#Cc3ccccc3)cn2n1 [Example 38, 2-Isopropyl-6-phenylethynyl-pyrazolo[1,5-a]pyrimidine]
39 | 30 | 54 | CC(C)(C)c1nc2ccc(C#Cc3ccccc3)cn2n1 [Example 39, 2-tert-Butyl-6-phenylethynyl-[1,2,4]triazolo[1,5-a]pyridine]
40 | 66 | 88 | CC(C)(CO)c1nc2ccc(C#Cc3ccccc3)cn2n1 [Example 40, 2-Methyl-2-(6-phenylethynyl-[1,2,4]triazolo[1,5-a]pyridin-2-yl)-propan-1-ol]
